What was measured:
Details in all cases: incubation time: 72 h
[1] = test system: CAL-120; assay: normalised response (% of control), CellTox Green; higher = less cell death (100 = DMSO, 0 = benzethonium chloride kill control)
Procedure, shortened: (§1)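 The table gives the normalised signal for a single concentration in each entry. Breast cancer cell lines were seeded (20 µl suspension) into 384-well plates holding compound at 5 concentrations in 10-fold steps over a compound-specific 10,000-fold range and incubated 72 h, then read for CellTox Green fluorescence (485/520 nm) and CellTiter-Glo luminescence. Normalisation on each plate used 0.1 % DMSO (100) and a positive kill control (0).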

[2] = test system: HCC1599; assay: as above
Procedure, shortened: as §1

[3] = test system: BT-474; assay: as above
Procedure, shortened: as §1

[4] = test system: Hs578T; assay: as above
Procedure, shortened: as §1

[5] = test system: CAL-148; assay: as above
Procedure, shortened: as §1

[6] = test system: MDA-MB-453; assay: as above
Procedure, shortened: as §1

[7] = test system: MCF-10A; assay: as above
Procedure, shortened: as §1

[8] = test system: MDA-MB-468; assay: as above
Procedure, shortened: as §1

[9] = test system: HCC1937; assay: as above
Procedure, shortened: as §1

[10] = test system: MDA-MB-231; assay: as above
Procedure, shortened: as §1

[11] = test system: HDQ-P1; assay: as above
Procedure, shortened: as §1

[12] = test system: MFM-223; assay: as above
Procedure, shortened: as §1

[13] = test system: CAL-51; assay: as above
Procedure, shortened: as §1

[14] = test system: CAL-85-1; assay: as above
Procedure, shortened: as §1

[15] = test system: HCC1143; assay: as above
Procedure, shortened: as §1

[16] = test system: BT-549; assay: as above
Procedure, shortened: as §1

[17] = test system: DU-4475; assay: as above
Procedure, shortened: as §1

[18] = test system: MDA-MB-436; assay: as above
Procedure, shortened: as §1

[19] = test system: SK-BR-3; assay: normalised response (% of control), CellTiter-Glo; higher = more viable cells (100 = DMSO, 0 = benzethonium chloride kill control)
Procedure, shortened: as §1

[20] = test system: CAL-120; assay: as above
Procedure, shortened: as §1

[21] = test system: HCC1599; assay: as above
Procedure, shortened: as §1

[22] = test system: BT-474; assay: as above
Procedure, shortened: as §1

[23] = test system: Hs578T; assay: as above
Procedure, shortened: as §1

[24] = test system: CAL-148; assay: as above
Procedure, shortened: as §1

[25] = test system: MDA-MB-453; assay: as above
Procedure, shortened: as §1

[26] = test system: MCF-10A; assay: as above
Procedure, shortened: as §1

[27] = test system: MDA-MB-468; assay: as above
Procedure, shortened: as §1

[28] = test system: HCC1937; assay: as above
Procedure, shortened: as §1

[29] = test system: MDA-MB-231; assay: as above
Procedure, shortened: as §1

[30] = test system: HDQ-P1; assay: as above
Procedure, shortened: as §1

[31] = test system: MFM-223; assay: as above
Procedure, shortened: as §1

[32] = test system: CAL-51; assay: as above
Procedure, shortened: as §1

[33] = test system: CAL-85-1; assay: as above
Procedure, shortened: as §1

[34] = test system: HCC1143; assay: as above
Procedure, shortened: as §1

[35] = test system: BT-549; assay: as above
Procedure, shortened: as §1

[36] = test system: DU-4475; assay: as above
Procedure, shortened: as §1

[37] = test system: MDA-MB-436; assay: as above
Procedure, shortened: as §1

| Structure (SMILES) | normalised response [1] [%] | normalised response [2] [%] | normalised response [3] [%] | normalised response [4] [%] | normalised response [5] [%] | normalised response [6] [%] | normalised response [7] [%] | normalised response [8] [%] | normalised response [9] [%] | normalised response [10] [%] | normalised response [11] [%] | normalised response [12] [%] | normalised response [13] [%] | normalised response [14] [%] | normalised response [15] [%] | normalised response [16] [%] | normalised response [17] [%] | normalised response [18] [%] | normalised response [19] [%] | normalised response [20] [%] | normalised response [21] [%] | normalised response [22] [%] | normalised response [23] [%] | normalised response [24] [%] | normalised response [25] [%] | normalised response [26] [%] | normalised response [27] [%] | normalised response [28] [%] | normalised response [29] [%] | normalised response [30] [%] | normalised response [31] [%] | normalised response [32] [%] | normalised response [33] [%] | normalised response [34] [%] | normalised response [35] [%] | normalised response [36] [%] | normalised response [37] [%] |
| --- | --- | --- | --- | --- | --- | --- | --- | --- | --- | --- | --- | --- | --- | --- | --- | --- | --- | --- | --- | --- | --- | --- | --- | --- | --- | --- | --- | --- | --- | --- | --- | --- | --- | --- | --- | --- | --- |
| C=CCc1cccc(/C=N/NC(=O)CN2CCN(Cc3ccccc3)CC2)c1O [PAC-1] (10000 nM) | 70.5 | 91 | 74.2 | 116 | 61.4 | 93.7 | 99.2 | 65.4 | 96 | 86.4 | 113 | 103 | 68.6 | 63.3 | 101 | 2.94 | 86.9 | 103 | 14.9 | 34.8 | 33.4 | 38.9 | 73.5 | 26.6 | 26.4 | 77.7 | 11.6 | 27.7 | 45 | 61.4 | 43.4 | 5.5 | 21 | 41.4 | 34 | 9.69 | 17.8 |
| CC(=O)Nc1cccc(-n2c(=O)n(C3CC3)c(=O)c3c(Nc4ccc(I)cc4F)n(C)c(=O)c(C)c32)c1 [Trametinib] (250 nM) | 77.3 | 110 | 101 | 118 | 86 | 105 | 60.7 | 96 | 110 | 63.1 | 82.9 | 101 | 86.8 | 31.4 | 120 | 119 | 73.2 | 113 | 96.1 | 62.2 | 88.3 | 60.1 | 64.6 | 84.3 | 98 | 32.3 | 82.5 | 66.5 | 61.9 | 57.4 | 60.2 | 69 | 46.2 | 81.2 | 89 | 0.48 | 79.2 |
| COc1cc2c(NC3CCN(C(C)C)CC3)nc(C3CCCCC3)nc2cc1OCCCN1CCCC1 [UNC0638] (10000 nM) | -29.4 | 62.2 | -17.5 | 13.9 | 2.74 | -11.5 | -76.4 | -186 | -27 | -58.7 | 58.6 | 36.8 | -16.4 | -10.2 | 94.9 | 17 | 88.3 | 18.6 | 2.89 | 8.51 | 14 | 2.59 | 51.9 | 3.47 | 0.34 | 0.31 | 0.31 | 13.6 | 0.6 | 23.3 | 3.95 | 17 | 0.26 | 36.4 | 1.52 | 71.8 | 7.47 |
| CC[C@@H]1C(=O)N(C)c2cnc(Nc3ccc(C(=O)NC4CCN(C)CC4)cc3OC)nc2N1C1CCCC1 [BI 2536] (1000 nM) | 79.6 | 92.2 | 97.5 | 29.2 | 70.4 | 101 | 100 | 98.3 | 109 | 101 | 93 | 90.7 | 32 | 43.9 | 113 | 90.3 | 95.1 | 102 | 26.9 | 52.5 | 26.5 | 75.9 | 24.2 | 79.9 | 58.9 | 44.4 | 42.3 | 74.7 | 72.4 | 66.6 | 55.6 | 31.7 | 44.7 | 39.3 | 28.3 | 75.6 | 73.8 |
| CC[C@H](Nc1ncnc2[nH]cnc12)c1nc2cccc(F)c2c(=O)n1-c1ccccc1 [GS-1101] (10000 nM) | 98.2 | 93.5 | 97.9 | 109 | 79.9 | 73.4 | 102 | 59.5 | 94.4 | 86.4 | 61.4 | 95.4 | 107 | 96.4 | 99.5 | 114 | 95.5 | 111 | 62.9 | 77.8 | 107 | 71.4 | 76.5 | 86 | 61.8 | 63 | 64.7 | 78.7 | 73.6 | 71.7 | 77 | 120 | 93.1 | 81.3 | 69.6 | 96.3 | 59.8 |
| COc1cc([C@@H]2c3cc4c(cc3[C@@H](O[C@@H]3O[C@@H]5CO[C@@H](c6cccs6)O[C@H]5[C@H](O)[C@H]3O)[C@H]3COC(=O)[C@H]23)OCO4)cc(OC)c1O [Teniposide] (10000 nM) | 22.2 | 67 | 59.4 | 45.6 | 38.7 | 105 | 59.6 | 29.8 | 51 | -78.1 | -41.5 | 48.8 | 13.6 | -1.62 | 74.5 | 59 | 61.9 | 80.5 | 6.25 | 23.6 | 5.92 | 9.52 | 6.65 | 4.81 | 64 | 51.8 | 7.53 | 22.8 | 15.6 | 34.3 | 12.9 | 14 | 8.03 | 10.8 | 5.21 | 4.51 | 17.1 |
| CCCCC(=O)OCC(=O)[C@]1(O)Cc2c(O)c3c(c(O)c2[C@@H](O[C@H]2C[C@H](NC(=O)C(F)(F)F)[C@H](O)[C@H](C)O2)C1)C(=O)c1c(OC)cccc1C3=O [Valrubicin] (5000 nM) | 128 | 196 | 112 | 193 | 119 | 150 | 157 | 548 | 183 | 205 | 134 | 118 | 106 | 170 | 176 | 208 | 147 | 147 | 8.77 | 59.3 | 24.8 | 40.1 | 34.1 | 0.81 | 22.1 | 9.91 | 22.8 | 50.2 | 47.7 | 45.4 | 40.8 | 0.2 | 37 | 19.9 | 13.4 | 0.06 | 35.4 |

— the supplement of paper PMC4862054
